Earlier results, collected in patent publication US8222453B2, “Benzamide factor VIIa inhibitors useful as anticoagulants” (Bristol-Myers Squibb Company, priority 2006, dated 2012).

Tests used:
deep vein thrombosis = details: patients undergoing total knee replacement
[1] = test system: systemic thrombin generation; details: patients undergoing coronary angioplasty

For “recombinant nematode anticoagulant protein c2 [rNAPc2]”, the deep vein thrombosis (deep vein thrombosis) is given as “prevents deep vein thrombosis” and the systemic thrombin generation [1] is given as “reduces systemic thrombin generation”.
